± gives the standard deviation of the averaged measurements.
system: MDA-MB-231; assay: relative cell number vs DMSO control (72 h) (% of DMSO); higher = less growth inhibition (more cells); conditions: sgRNA knockout: sgNT, 100 nM
Method: (§1)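 QMAP-Seq: a pool of 5 breast cancer cell lines (ZR-75-1, SKBR3, HCC-38, MDA-MB-231, BT-20), each carrying 12 doxycycline-inducible Cas9 sgRNA perturbations (11 knockouts plus non-targeting sgNT), was treated with compounds for 72 h at four 10-fold doses (10 nM-10 uM or 1 nM-1 uM range). Barcodes were amplified and sequenced, and cell number was interpolated from 293T spike-in standard curves. The result is expressed as % of the median of DMSO wells. Two biological replicates.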

Question: With COc1cc2nccc(Oc3ccc(NC(=O)C4(C(=O)Nc5ccc(F)cc5)CC4)cc3)c2cc1OC [Cabozantinib] as the molecule, how does the relative cell number read?
Answer: 88.2 ± 3.7

same assay, conditions: sgRNA knockout: sgNT, 1000 nM

Question: CC(C)(C)OC(=O)CN(Cc1ccc(Cl)cc1)Cc1ccc([N+](=O)[O-])s1 [GSK4112] was tested. Which relative cell number did it give?
Answer: 82.9 ± 9.5

Question: For C=C1C[C@@H]2[C@H](CC[C@]3(C)C(=O)CC[C@@H]23)[C@@]2(C)C=CC(=O)C=C12 [Exemestane], which relative cell number is on record?
Answer: 80.5 ± 6

Question: How did the relative cell number turn out when COc1cc([C@@H]2c3cc4c(cc3[C@@H](O[C@@H]3O[C@@H]5CO[C@@H](c6cccs6)O[C@H]5[C@H](O)[C@H]3O)[C@H]3COC(=O)[C@H]23)OCO4)cc(OC)c1O [Teniposide] was run?
Answer: 11 ± 1.3

Question: Which relative cell number does the source give for COc1cccc2cc(-c3nc([C@H]4CC[C@H](C(=O)O)CC4)n4ncnc(N)c34)[nH]c12 [OSI027] here?
Answer: 83.4 ± 29

Question: CN(C)C/C=C/C(=O)Nc1cc2c(Nc3ccc(F)c(Cl)c3)ncnc2cc1O[C@H]1CCOC1 [Afatinib] was tested. Which relative cell number did it give?
Answer: 93.9 ± 5.5

Question: Cc1cnc(-c2cnc(NCCNc3ccc(C#N)cn3)nc2-c2ccc(Cl)cc2Cl)[nH]1 was tested. Which relative cell number did it give?
Answer: 79.9 ± 25

Question: For O=C(O)CC[C@H]1CC[C@@](c2cc(F)ccc2F)(S(=O)(=O)c2ccc(Cl)cc2)CC1 [MK0752], which relative cell number is on record?
Answer: 124 ± 7.5

Question: How did the relative cell number turn out when CC[C@H](C)C(=O)O[C@H]1C[C@@H](C)C=C2C=C[C@H](C)[C@H](CC[C@@H]3C[C@@H](O)CC(=O)O3)[C@H]21 [Lovastatin] was run?
Answer: 83 ± 29

Question: With NC(=O)Nc1sc(-c2ccc(F)cc2)cc1C(N)=O [TPCA1] as the molecule, how does the relative cell number read?
Answer: 130 ± 4.7

Question: With C[C@]1(c2nc3c(C(N)=O)cccc3[nH]2)CCCN1 [Veliparib] as the molecule, how does the relative cell number read?
Answer: 148 ± 33

Question: With COc1cc(Nc2ncc3c(n2)-c2ccc(Cl)cc2C(c2c(F)cccc2OC)=NC3)ccc1C(=O)O [Alisertib] as the molecule, how does the relative cell number read?
Answer: 59.5 ± 1.8

Question: How did the relative cell number turn out when Cc1cc(N2CCOCC2)cc2[nH]c(-c3c(NC[C@@H](O)c4cccc(Cl)c4)cc[nH]c3=O)nc12 was run?
Answer: 77.5 ± 2.4

Question: Which relative cell number does the source give for Cc1ccc(S(=O)(=O)OCC(=O)Nc2ccc(C(=O)O)c(O)c2)cc1 here?
Answer: 117 ± 20

Question: Which relative cell number does the source give for CC(C)[C@]12O[C@H]1[C@@H]1O[C@]13[C@]1(O[C@H]1C[C@H]1C4=C(CC[C@@]13C)C(=O)OC4)[C@@H]2O [Triptolide] here?
Answer: 13.7 ± 4.4

Question: C#Cc1cccc(Nc2ncnc3cc(OCCOC)c(OCCOC)cc23)c1 [Erlotinib] was tested. Which relative cell number did it give?
Answer: 98.4 ± 8.8

Question: Which relative cell number does the source give for Cc1ccc(C(=O)N(CCCN)[C@@H](c2oc3cc(Cl)ccc3c(=O)c2Cc2ccccc2)C(C)C)cc1 here?
Answer: 17.2 ± 11

Question: CS(=O)(=O)N1CCN(Cc2cc3nc(-c4cccc5[nH]ncc45)nc(N4CCOCC4)c3s2)CC1 [GDC0941] was tested. Which relative cell number did it give?
Answer: 66.3 ± 8.2

Question: With Cc1nc(Nc2n[nH]c3c2CN(C(=O)N[C@H](CN(C)C)c2ccccc2)C3(C)C)c2sccc2n1 as the molecule, how does the relative cell number read?
Answer: 13.4 ± 6.6

Question: How did the relative cell number turn out when C=CCc1cccc(/C=N/NC(=O)CN2CCN(Cc3ccccc3)CC2)c1O [PAC1] was run?
Answer: 109 ± 32

Question: How did the relative cell number turn out when COc1cc2nccc(Oc3ccc(NC(=O)C4(C(=O)Nc5ccc(F)cc5)CC4)cc3)c2cc1OC [Cabozantinib] was run?
Answer: 100 ± 3.8

same assay, conditions: sgRNA knockout: sgNT, 10000 nM

Question: CC(C)(C)OC(=O)CN(Cc1ccc(Cl)cc1)Cc1ccc([N+](=O)[O-])s1 [GSK4112] was tested. Which relative cell number did it give?
Answer: 114 ± 40

Question: How did the relative cell number turn out when C=C1C[C@@H]2[C@H](CC[C@]3(C)C(=O)CC[C@@H]23)[C@@]2(C)C=CC(=O)C=C12 [Exemestane] was run?
Answer: 69.8 ± 21

Question: How did the relative cell number turn out when COc1cc([C@@H]2c3cc4c(cc3[C@@H](O[C@@H]3O[C@@H]5CO[C@@H](c6cccs6)O[C@H]5[C@H](O)[C@H]3O)[C@H]3COC(=O)[C@H]23)OCO4)cc(OC)c1O [Teniposide] was run?
Answer: 11.2 ± 4.8

Question: COc1cccc2cc(-c3nc([C@H]4CC[C@H](C(=O)O)CC4)n4ncnc(N)c34)[nH]c12 [OSI027] was tested. Which relative cell number did it give?
Answer: 58.9 ± 11

Question: Which relative cell number does the source give for CN(C)C/C=C/C(=O)Nc1cc2c(Nc3ccc(F)c(Cl)c3)ncnc2cc1O[C@H]1CCOC1 [Afatinib] here?
Answer: 15.6 ± 3.4

Question: For Cc1cnc(-c2cnc(NCCNc3ccc(C#N)cn3)nc2-c2ccc(Cl)cc2Cl)[nH]1, which relative cell number is on record?
Answer: 72.7 ± 21

Question: Which relative cell number does the source give for O=C(O)CC[C@H]1CC[C@@](c2cc(F)ccc2F)(S(=O)(=O)c2ccc(Cl)cc2)CC1 [MK0752] here?
Answer: 94.4 ± 51

Question: For CC[C@H](C)C(=O)O[C@H]1C[C@@H](C)C=C2C=C[C@H](C)[C@H](CC[C@@H]3C[C@@H](O)CC(=O)O3)[C@H]21 [Lovastatin], which relative cell number is on record?
Answer: 15.7 ± 6.2

Question: NC(=O)Nc1sc(-c2ccc(F)cc2)cc1C(N)=O [TPCA1] was tested. Which relative cell number did it give?
Answer: 69.6 ± 7.9

Question: How did the relative cell number turn out when C[C@]1(c2nc3c(C(N)=O)cccc3[nH]2)CCCN1 [Veliparib] was run?
Answer: 97.2 ± 8.6

Question: For COc1cc(Nc2ncc3c(n2)-c2ccc(Cl)cc2C(c2c(F)cccc2OC)=NC3)ccc1C(=O)O [Alisertib], which relative cell number is on record?
Answer: 49.3 ± 8.4

Question: With Cc1cc(N2CCOCC2)cc2[nH]c(-c3c(NC[C@@H](O)c4cccc(Cl)c4)cc[nH]c3=O)nc12 as the molecule, how does the relative cell number read?
Answer: 15 ± 2.3

Question: Which relative cell number does the source give for Cc1ccc(S(=O)(=O)OCC(=O)Nc2ccc(C(=O)O)c(O)c2)cc1 here?
Answer: 86.1 ± 20

Question: How did the relative cell number turn out when C#Cc1cccc(Nc2ncnc3cc(OCCOC)c(OCCOC)cc23)c1 [Erlotinib] was run?
Answer: 83.6 ± 2.8

Question: How did the relative cell number turn out when Cc1ccc(C(=O)N(CCCN)[C@@H](c2oc3cc(Cl)ccc3c(=O)c2Cc2ccccc2)C(C)C)cc1 was run?
Answer: 4.71 ± 1.3

Question: For CS(=O)(=O)N1CCN(Cc2cc3nc(-c4cccc5[nH]ncc45)nc(N4CCOCC4)c3s2)CC1 [GDC0941], which relative cell number is on record?
Answer: 44.3 ± 12

Question: How did the relative cell number turn out when Cc1nc(Nc2n[nH]c3c2CN(C(=O)N[C@H](CN(C)C)c2ccccc2)C3(C)C)c2sccc2n1 was run?
Answer: 4.59 ± 3.4

Question: C=CCc1cccc(/C=N/NC(=O)CN2CCN(Cc3ccccc3)CC2)c1O [PAC1] was tested. Which relative cell number did it give?
Answer: 31.7 ± 4.5

Question: How did the relative cell number turn out when COc1cc2nccc(Oc3ccc(NC(=O)C4(C(=O)Nc5ccc(F)cc5)CC4)cc3)c2cc1OC [Cabozantinib] was run?
Answer: 36.7 ± 24

system: SKBR3; assay: as above; conditions: sgRNA knockout: sgNT, 1 nM
Method: as §1

Question: Which relative cell number does the source give for CC(C)[C@]12O[C@H]1[C@@H]1O[C@]13[C@]1(O[C@H]1C[C@H]1C4=C(CC[C@@]13C)C(=O)OC4)[C@@H]2O [Triptolide] here?
Answer: 83.4 ± 9

same assay, conditions: sgRNA knockout: sgNT, 10 nM

Question: For CC(C)(C)OC(=O)CN(Cc1ccc(Cl)cc1)Cc1ccc([N+](=O)[O-])s1 [GSK4112], which relative cell number is on record?
Answer: 87.6 ± 3.9

Question: With C=C1C[C@@H]2[C@H](CC[C@]3(C)C(=O)CC[C@@H]23)[C@@]2(C)C=CC(=O)C=C12 [Exemestane] as the molecule, how does the relative cell number read?
Answer: 108 ± 22

Question: For COc1cc([C@@H]2c3cc4c(cc3[C@@H](O[C@@H]3O[C@@H]5CO[C@@H](c6cccs6)O[C@H]5[C@H](O)[C@H]3O)[C@H]3COC(=O)[C@H]23)OCO4)cc(OC)c1O [Teniposide], which relative cell number is on record?
Answer: 101 ± 6.8

Question: COc1cccc2cc(-c3nc([C@H]4CC[C@H](C(=O)O)CC4)n4ncnc(N)c34)[nH]c12 [OSI027] was tested. Which relative cell number did it give?
Answer: 87.6 ± 25

Question: For CN(C)C/C=C/C(=O)Nc1cc2c(Nc3ccc(F)c(Cl)c3)ncnc2cc1O[C@H]1CCOC1 [Afatinib], which relative cell number is on record?
Answer: 85.2 ± 6.7

Question: Cc1cnc(-c2cnc(NCCNc3ccc(C#N)cn3)nc2-c2ccc(Cl)cc2Cl)[nH]1 was tested. Which relative cell number did it give?
Answer: 99.6 ± 12

Question: With O=C(O)CC[C@H]1CC[C@@](c2cc(F)ccc2F)(S(=O)(=O)c2ccc(Cl)cc2)CC1 [MK0752] as the molecule, how does the relative cell number read?
Answer: 172 ± 42

Question: With CC[C@H](C)C(=O)O[C@H]1C[C@@H](C)C=C2C=C[C@H](C)[C@H](CC[C@@H]3C[C@@H](O)CC(=O)O3)[C@H]21 [Lovastatin] as the molecule, how does the relative cell number read?
Answer: 103 ± 22

Question: NC(=O)Nc1sc(-c2ccc(F)cc2)cc1C(N)=O [TPCA1] was tested. Which relative cell number did it give?
Answer: 92.2 ± 32

Reference: the supplement of paper PMC7661543
